Test results published in ChEMBL document CHEMBL2057108 (Bioorg Med Chem Lett, 2012).
Activity calls are given as the source filed them. The calls are words filed in the database; no cut-off is given here.

Experiments:
Homo sapiens = species on record: Homo sapiens; assay: Selectivity ratio of Ki for human 5HT3A receptor to Ki for human 5HT4C receptor
[1] = Permeability across human Caco2 cells; format: ADME, cell-based; details: Caco-2, read-out: Kp
[2] = Half life in rat liver microsomes; format: ADME, Microsome; details: liver microsomes
[3] = biological target: T1, 5-hydroxytryptamine receptor 4 (Homo sapiens, UniProt Q13639); assay: Agonist activity at human 5HT4C receptor expressed at 100 fold physiological-level in HEK293 cells assessed as cAMP accumulation; format: functional, cell-based
[4] = biological target: T1, 5-hydroxytryptamine receptor 4; assay: Intrinsic activity at human 5HT4C receptor expressed at 100 fold physiological-level in HEK293 cells assessed as cAMP accumulation relative to 5HT; format: functional, cell-based
hERG (KCNH2) = hERG (KCNH2) (Homo sapiens, UniProt Q12809); assay: Inhibition of human ERG expressed in CHO cells at 3 uM; format: cell-based; details: CHO cells expressing human ERG
[5] = biological target: T1, 5-hydroxytryptamine receptor 4; assay: biochemical
Description: Displacement of [3H]GR113808 from human recombinant 5HT4C receptor expressed in HEK293 cells

[6] = biological target: T1, 5-hydroxytryptamine receptor 4; assay: Agonist activity at human 5HT4C receptor expressed in a cell line expressing receptor at 10 fold physiological-level assessed as cAMP accumulation; format: functional
Cavia porcellus = assay: Agonist activity at 5HT4 receptor in sc dosed guinea pig assessed as decrease in colonic transit time of carmine red dye after 60 mins relative to vehicle treated control; format: functional, organism-based
[7] = biological target: 5-hydroxytryptamine receptor 2B (Homo sapiens) (UniProt P41595); assay: Inhibition of 5HT2B receptor at 10 uM
[8] = biological target: 5-hydroxytryptamine receptor 4 (Cavia porcellus, UniProt O70528); assay: Agonist activity at 5HT4 receptor in guinea pig colon assessed as longitudinal muscle plexus contraction
[9] = AUC (0 to t) in Sprague-Dawley rat at 5 mg/kg, po; format: ADME, organism-based; design: dose 5 mg/kg, route oral; details: plasma
[10] = biological target: T2, 5-hydroxytryptamine receptor 2C (Homo sapiens) (UniProt P28335); assay: Inhibition of 5HT2C receptor at 10 uM
T2 sequence (whole entry): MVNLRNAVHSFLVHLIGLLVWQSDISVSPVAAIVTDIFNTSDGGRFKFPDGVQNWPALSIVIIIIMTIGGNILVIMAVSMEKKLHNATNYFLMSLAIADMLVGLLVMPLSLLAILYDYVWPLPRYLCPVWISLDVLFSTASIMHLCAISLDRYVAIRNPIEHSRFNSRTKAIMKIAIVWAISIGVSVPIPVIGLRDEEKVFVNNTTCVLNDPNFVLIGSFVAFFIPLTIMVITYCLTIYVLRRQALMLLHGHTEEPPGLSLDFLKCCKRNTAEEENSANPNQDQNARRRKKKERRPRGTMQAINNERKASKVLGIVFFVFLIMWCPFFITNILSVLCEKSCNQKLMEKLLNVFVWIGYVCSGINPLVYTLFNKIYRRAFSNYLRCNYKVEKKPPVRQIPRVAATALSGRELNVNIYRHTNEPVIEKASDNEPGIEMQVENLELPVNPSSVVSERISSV

Rattus norvegicus [11] = assay: 5-HT4 receptor-mediated esophageal relaxation in anesthetized rat (following intraduodenal administration) using digital sonomicrometry; format: functional, organism-based; details: Sprague-Dawley
[12] = biological target: T3, 5-hydroxytryptamine receptor 1A (Homo sapiens) (UniProt P08908); assay: Inhibition of 5HT1A receptor at 10 uM
T3 sequence (whole entry): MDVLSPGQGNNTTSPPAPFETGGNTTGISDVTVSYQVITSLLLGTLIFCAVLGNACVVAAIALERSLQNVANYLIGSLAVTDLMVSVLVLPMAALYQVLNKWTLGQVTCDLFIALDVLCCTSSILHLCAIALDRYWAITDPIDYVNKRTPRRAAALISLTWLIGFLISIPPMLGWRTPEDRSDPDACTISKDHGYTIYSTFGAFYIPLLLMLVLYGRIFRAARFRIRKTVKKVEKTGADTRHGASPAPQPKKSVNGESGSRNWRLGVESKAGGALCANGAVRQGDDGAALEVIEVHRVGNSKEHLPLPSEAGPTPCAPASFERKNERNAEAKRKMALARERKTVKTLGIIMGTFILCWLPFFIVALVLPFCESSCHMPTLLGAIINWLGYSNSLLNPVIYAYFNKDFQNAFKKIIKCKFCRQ

[13] = biological target: 5-hydroxytryptamine receptor 1D (Homo sapiens) (UniProt P28221); assay: Inhibition of 5HT1D receptor at 10 uM
[14] = biological target: T1, 5-hydroxytryptamine receptor 4; assay: Intrinsic activity at human 5HT4C receptor expressed in a cell line expressing receptor at 10 fold physiological-level assessed as cAMP accumulation relative to 5HT; format: functional
Rattus norvegicus [15] = assay: 5-HT4 receptor-mediated esophageal relaxation in anesthetized rat (following i.v. administration) using digital sonomicrometry; format: functional; details: Sprague-Dawley
[16] = Oral bioavailability in Sprague-Dawley rat at 5 mg/kg; format: ADME, organism-based; details: in vivo
[17] = Cmax in Sprague-Dawley rat at 5 mg/kg, po; format: ADME, organism-based; design: dose 5 mg/kg, route oral; details: in vivo
[18] = biological target: 5-hydroxytryptamine receptor 2A (Homo sapiens) (UniProt P28223); assay: Inhibition of 5HT2A receptor at 10 uM
[19] = biological target: T1, 5-hydroxytryptamine receptor 4; assay: 5-HT4C receptor-mediated exchange of GDP for europium labeled GTP (pEC50)
[20] = biological target: 5-hydroxytryptamine receptor 1B (Homo sapiens) (UniProt P28222); assay: Inhibition of 5HT1B receptor at 10 uM
[21] = biological target: T1, 5-hydroxytryptamine receptor 4; assay: 5-HT4C receptor-mediated exchange of GDP for europium labeled GTP (intrinsic activity)
[22] = biological target: 5-hydroxytryptamine receptor 7 (Homo sapiens) (UniProt P34969); assay: Inhibition of 5HT7 receptor at 10 uM
[23] = Half life in Sprague-Dawley rat at 5 mg/kg, po; format: ADME, organism-based; design: dose 5 mg/kg, route oral; details: in vivo
[24] = biological target: 5-hydroxytryptamine receptor 6 (Homo sapiens) (UniProt P50406); assay: Inhibition of 5HT6 receptor at 10 uM
[25] = biological target: 5-hydroxytryptamine receptor 5A (Homo sapiens) (UniProt P47898); assay: Inhibition of 5HT5A receptor at 10 uM
[26] = biological target: T4, 5-hydroxytryptamine receptor 3A (Homo sapiens) (UniProt P46098); assay: Inhibition of 5HT3A receptor at 10 uM
T4 sequence (whole entry): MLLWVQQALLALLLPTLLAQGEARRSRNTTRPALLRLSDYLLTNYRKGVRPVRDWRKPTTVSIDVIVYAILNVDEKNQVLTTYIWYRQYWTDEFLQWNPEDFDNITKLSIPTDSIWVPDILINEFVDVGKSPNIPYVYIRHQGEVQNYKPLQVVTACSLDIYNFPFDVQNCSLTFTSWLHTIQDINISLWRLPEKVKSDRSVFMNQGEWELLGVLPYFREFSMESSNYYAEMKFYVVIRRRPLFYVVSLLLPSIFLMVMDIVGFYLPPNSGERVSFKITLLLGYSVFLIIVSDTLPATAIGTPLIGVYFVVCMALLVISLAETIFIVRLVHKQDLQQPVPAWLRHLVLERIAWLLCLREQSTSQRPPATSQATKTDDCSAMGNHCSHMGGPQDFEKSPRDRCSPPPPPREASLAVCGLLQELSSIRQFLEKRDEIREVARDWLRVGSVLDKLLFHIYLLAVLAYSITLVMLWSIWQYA

T1 sequence (Q13639 whole entry): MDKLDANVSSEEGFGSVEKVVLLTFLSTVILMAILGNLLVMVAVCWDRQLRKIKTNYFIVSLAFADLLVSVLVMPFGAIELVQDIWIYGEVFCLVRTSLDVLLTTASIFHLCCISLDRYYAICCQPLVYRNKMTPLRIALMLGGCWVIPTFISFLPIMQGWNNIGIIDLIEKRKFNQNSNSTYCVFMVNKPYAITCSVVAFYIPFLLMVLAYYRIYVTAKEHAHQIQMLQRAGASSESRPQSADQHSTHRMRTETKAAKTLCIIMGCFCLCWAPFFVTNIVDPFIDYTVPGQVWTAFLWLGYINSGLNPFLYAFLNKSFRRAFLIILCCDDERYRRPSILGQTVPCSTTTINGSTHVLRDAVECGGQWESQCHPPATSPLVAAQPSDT
Sequence of hERG (KCNH2) (Q12809 whole entry): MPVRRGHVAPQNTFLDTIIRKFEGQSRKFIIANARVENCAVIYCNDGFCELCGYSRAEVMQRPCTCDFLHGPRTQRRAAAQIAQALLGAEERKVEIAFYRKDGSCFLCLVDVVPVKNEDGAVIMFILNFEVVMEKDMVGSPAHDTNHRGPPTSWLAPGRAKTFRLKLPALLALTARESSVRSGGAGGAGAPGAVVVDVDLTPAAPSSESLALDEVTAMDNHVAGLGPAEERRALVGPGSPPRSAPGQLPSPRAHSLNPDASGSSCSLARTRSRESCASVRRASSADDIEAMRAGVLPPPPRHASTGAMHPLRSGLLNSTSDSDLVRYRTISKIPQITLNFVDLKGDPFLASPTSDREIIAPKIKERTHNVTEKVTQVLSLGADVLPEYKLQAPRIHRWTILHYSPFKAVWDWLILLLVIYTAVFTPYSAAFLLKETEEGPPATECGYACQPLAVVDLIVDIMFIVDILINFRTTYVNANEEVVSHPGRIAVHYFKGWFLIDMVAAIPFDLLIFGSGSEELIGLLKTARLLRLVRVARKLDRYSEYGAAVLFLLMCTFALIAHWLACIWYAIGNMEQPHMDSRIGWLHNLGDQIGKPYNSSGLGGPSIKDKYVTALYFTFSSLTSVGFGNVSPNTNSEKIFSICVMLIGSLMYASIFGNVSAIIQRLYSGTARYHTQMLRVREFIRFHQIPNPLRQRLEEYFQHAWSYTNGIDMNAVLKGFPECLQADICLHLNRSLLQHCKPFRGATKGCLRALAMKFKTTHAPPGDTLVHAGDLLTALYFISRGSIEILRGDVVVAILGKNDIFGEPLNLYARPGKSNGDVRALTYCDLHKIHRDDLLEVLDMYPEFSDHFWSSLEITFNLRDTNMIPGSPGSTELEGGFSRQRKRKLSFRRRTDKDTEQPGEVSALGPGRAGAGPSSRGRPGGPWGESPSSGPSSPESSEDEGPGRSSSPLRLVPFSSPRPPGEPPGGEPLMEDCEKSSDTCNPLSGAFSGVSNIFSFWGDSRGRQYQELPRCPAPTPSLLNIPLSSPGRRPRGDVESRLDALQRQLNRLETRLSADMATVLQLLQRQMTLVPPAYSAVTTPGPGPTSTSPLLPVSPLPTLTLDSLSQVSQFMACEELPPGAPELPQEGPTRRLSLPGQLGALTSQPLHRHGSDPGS
Sequence of 5-hydroxytryptamine receptor 4 (Cavia porcellus, UniProt O70528) (O70528 whole entry): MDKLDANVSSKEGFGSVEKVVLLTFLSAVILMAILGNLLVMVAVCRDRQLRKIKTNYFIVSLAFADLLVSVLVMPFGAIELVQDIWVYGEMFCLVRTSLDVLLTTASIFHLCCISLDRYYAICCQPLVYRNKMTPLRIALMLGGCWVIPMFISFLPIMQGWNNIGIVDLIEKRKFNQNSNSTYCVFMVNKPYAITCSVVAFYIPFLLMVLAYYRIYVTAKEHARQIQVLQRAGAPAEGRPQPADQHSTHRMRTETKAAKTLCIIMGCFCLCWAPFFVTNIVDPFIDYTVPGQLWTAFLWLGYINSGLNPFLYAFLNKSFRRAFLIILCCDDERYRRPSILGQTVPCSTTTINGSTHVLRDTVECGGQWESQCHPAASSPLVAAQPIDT
Sequence of 5-hydroxytryptamine receptor 2B (Homo sapiens) (P41595 whole entry): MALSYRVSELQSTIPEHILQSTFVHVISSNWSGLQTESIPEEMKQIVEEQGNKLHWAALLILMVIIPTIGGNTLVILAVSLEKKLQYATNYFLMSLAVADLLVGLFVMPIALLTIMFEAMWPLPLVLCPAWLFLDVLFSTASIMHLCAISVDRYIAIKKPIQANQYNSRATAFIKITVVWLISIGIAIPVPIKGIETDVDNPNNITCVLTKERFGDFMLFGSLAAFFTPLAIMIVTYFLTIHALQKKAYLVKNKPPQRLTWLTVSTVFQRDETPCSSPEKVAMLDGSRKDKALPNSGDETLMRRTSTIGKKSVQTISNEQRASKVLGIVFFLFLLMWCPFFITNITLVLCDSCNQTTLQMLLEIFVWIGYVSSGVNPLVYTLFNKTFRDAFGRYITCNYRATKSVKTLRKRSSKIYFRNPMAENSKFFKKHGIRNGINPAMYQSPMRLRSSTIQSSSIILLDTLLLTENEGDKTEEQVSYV
Sequence of 5-hydroxytryptamine receptor 1B (Homo sapiens) (P28222 whole entry): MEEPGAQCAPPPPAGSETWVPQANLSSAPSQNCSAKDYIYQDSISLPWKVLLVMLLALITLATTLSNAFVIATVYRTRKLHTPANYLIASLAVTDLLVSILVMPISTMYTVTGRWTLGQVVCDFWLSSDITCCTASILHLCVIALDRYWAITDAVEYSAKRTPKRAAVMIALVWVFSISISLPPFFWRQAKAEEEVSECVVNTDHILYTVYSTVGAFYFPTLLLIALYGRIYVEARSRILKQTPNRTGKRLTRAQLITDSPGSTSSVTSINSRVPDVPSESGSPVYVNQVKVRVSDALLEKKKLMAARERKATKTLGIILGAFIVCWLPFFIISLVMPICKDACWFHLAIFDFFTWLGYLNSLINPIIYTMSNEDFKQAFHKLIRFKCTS
Sequence of 5-hydroxytryptamine receptor 6 (Homo sapiens) (P50406 whole entry): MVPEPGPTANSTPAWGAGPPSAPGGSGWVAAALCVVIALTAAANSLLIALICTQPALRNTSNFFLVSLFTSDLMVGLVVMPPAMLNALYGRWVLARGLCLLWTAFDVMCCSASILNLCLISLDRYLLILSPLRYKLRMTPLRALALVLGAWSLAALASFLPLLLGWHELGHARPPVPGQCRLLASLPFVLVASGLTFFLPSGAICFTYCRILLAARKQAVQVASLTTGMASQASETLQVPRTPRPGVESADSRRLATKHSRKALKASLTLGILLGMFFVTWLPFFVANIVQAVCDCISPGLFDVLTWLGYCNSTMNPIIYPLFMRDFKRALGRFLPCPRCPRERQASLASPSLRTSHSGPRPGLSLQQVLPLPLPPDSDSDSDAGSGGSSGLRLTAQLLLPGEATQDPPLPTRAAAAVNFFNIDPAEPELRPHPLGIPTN
Sequence of 5-hydroxytryptamine receptor 5A (Homo sapiens) (P47898 whole entry): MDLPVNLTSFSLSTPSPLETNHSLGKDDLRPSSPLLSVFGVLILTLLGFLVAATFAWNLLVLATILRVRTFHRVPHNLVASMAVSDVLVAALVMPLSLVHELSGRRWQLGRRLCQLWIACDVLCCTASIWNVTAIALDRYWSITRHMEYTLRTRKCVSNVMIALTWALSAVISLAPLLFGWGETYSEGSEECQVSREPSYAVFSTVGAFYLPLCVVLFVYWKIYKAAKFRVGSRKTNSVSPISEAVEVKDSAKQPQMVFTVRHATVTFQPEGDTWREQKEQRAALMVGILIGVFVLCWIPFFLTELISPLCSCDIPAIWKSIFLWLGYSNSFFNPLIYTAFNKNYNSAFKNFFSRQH
Sequence of 5-hydroxytryptamine receptor 1D (Homo sapiens) (P28221 whole entry): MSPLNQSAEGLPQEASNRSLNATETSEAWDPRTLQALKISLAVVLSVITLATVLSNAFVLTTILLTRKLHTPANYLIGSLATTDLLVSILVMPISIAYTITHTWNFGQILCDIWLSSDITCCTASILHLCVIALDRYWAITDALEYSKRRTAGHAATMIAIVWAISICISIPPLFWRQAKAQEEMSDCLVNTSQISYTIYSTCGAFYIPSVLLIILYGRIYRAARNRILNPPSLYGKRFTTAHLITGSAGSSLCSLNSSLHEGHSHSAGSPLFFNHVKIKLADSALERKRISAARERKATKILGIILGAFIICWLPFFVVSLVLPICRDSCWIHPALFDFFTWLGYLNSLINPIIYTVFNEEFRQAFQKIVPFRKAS
Sequence of 5-hydroxytryptamine receptor 2A (Homo sapiens) (P28223 whole entry): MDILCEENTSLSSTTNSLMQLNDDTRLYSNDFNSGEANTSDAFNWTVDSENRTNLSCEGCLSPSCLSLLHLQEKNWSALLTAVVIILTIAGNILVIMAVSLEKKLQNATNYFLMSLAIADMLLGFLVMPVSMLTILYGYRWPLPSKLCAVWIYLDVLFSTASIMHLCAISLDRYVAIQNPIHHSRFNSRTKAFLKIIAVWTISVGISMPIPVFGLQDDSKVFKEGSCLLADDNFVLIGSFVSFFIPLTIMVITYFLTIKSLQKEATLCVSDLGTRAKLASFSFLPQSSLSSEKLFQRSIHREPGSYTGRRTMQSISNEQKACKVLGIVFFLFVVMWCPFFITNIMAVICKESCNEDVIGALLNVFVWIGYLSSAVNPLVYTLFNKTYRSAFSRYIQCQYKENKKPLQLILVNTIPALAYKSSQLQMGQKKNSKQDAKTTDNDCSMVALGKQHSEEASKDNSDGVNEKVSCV
Sequence of 5-hydroxytryptamine receptor 7 (Homo sapiens) (P34969 whole entry): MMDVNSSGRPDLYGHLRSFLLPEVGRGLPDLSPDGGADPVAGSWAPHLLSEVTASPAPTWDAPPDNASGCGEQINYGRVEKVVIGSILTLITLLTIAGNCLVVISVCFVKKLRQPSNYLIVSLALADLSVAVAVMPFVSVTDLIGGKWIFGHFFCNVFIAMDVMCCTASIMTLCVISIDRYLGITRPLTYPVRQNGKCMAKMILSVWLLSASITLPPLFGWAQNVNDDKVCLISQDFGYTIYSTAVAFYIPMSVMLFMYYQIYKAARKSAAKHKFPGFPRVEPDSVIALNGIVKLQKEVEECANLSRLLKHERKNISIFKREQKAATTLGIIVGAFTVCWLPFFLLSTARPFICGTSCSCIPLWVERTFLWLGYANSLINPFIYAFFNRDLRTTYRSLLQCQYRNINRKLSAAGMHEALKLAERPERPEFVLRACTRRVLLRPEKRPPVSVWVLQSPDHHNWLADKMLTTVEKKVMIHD

Question: With `COC[C@@H]1CCCN1CC(O)CN1[C@@H]2CC[C@H]1C[C@@H](NC(=O)c1nn(C(C)C)c3ccccc13)C2` (some centres undefined) as the compound, how does the Ratio Ki (Homo sapiens) read?
Answer: 3000

Question: And the Papp [1]?
Answer: 48 ×10⁻⁶ cm/s

Question: What about the half-life [2] of the same compound?
Answer: 1.25 h

Question: And the EC50 [3]?
Answer: 2.51 nM

Question: What about the Intrinsic activity [4] of the same compound?
Answer: 108%

Question: What about the inhibition at 3 µM (hERG (KCNH2)) of the same compound?
Answer: 33%

Question: And the Ki [5]?
Answer: 3.98 nM

Question: Which Ratio Ki (Homo sapiens) does the source give for `CC(=O)N1CCN(CCN2[C@@H]3CC[C@H]2C[C@@H](NC(=O)c2nn(C(C)C)c4ccccc24)C3)CC1` here?
Answer: 980

Question: What about the Papp [1] of the same compound?
Answer: 31 ×10⁻⁶ cm/s

Question: What about the EC50 [6] of the same compound?
Answer: 10 nM

Question: What about the Activity (Cavia porcellus) of the same compound?
Answer: Active

Question: And the inhibition [7]?
Answer: < 50%

Question: And the EC50 [8]?
Answer: 10 nM

Question: And the AUC(0-t) [9]?
Answer: 730 ng·h/mL

Question: And the inhibition [10]?
Answer: < 50%

Question: What about the Activity (Rattus norvegicus [11]) of the same compound?
Answer: Dose-dependent effect

Question: And the inhibition [12]?
Answer: < 50%

Question: And the inhibition [13]?
Answer: < 50%

Question: And the half-life [2]?
Answer: > 1.5 h

Question: And the Intrinsic activity [14]?
Answer: 53%

Question: And the EC50 [3]?
Answer: 2.51 nM

Question: And the Activity (Rattus norvegicus [15])?
Answer: Dose-dependent effect

Question: What about the ED50 (Rattus norvegicus [15]; iv) of the same compound?
Answer: 0.0378 mg/kg

Question: What about the bioavailability [16] of the same compound?
Answer: > 100%

Question: And the Cmax [17]?
Answer: 254 ng/mL

Question: And the Intrinsic activity [4]?
Answer: 83%

Question: And the inhibition at 3 µM (hERG (KCNH2))?
Answer: 9%

Question: What about the inhibition [18] of the same compound?
Answer: < 50%

Question: And the Ki [5]?
Answer: 10 nM

Question: What about the EC50 [19] of the same compound?
Answer: 6.31 nM

Question: And the inhibition [20]?
Answer: < 50%

Question: What about the Intrinsic activity [21] of the same compound?
Answer: 57%

Question: What about the inhibition [22] of the same compound?
Answer: < 50%

Question: What about the half-life [23] of the same compound?
Answer: 3.2 h

Question: And the inhibition [24]?
Answer: < 50%

Question: What about the inhibition [25] of the same compound?
Answer: < 50%

Question: And the inhibition [26]?
Answer: < 50%

Question: For `CC(C)n1nc(C(=O)N[C@H]2C[C@H]3CC[C@@H](C2)N3CCN2CCN(S(C)(=O)=O)CC2)c2ccccc21`, which Ratio Ki (Homo sapiens) is on record?
Answer: 110

Question: And the Papp [1]?
Answer: 31 ×10⁻⁶ cm/s

Question: And the AUC(0-t) [9]?
Answer: 260 ng·h/mL

Question: What about the half-life [2] of the same compound?
Answer: > 1.5 h

Question: And the EC50 [3]?
Answer: 3.98 nM

Question: What about the bioavailability [16] of the same compound?
Answer: 48%

Question: And the Cmax [17]?
Answer: 99 ng/mL

Question: What about the Intrinsic activity [4] of the same compound?
Answer: 88%

Question: And the inhibition at 3 µM (hERG (KCNH2))?
Answer: 9%

Question: And the Ki [5]?
Answer: 12.6 nM

Question: What about the half-life [23] of the same compound?
Answer: 1.8 h

Question: Which results are given for `CCCCCNC(=N)N/N=C/c1c[nH]c2ccc(OC)cc12` [TEGASEROD]?
Answer: Ratio Ki (Homo sapiens): 580; pEC50 [6]: 8.7; Activity (Cavia porcellus): inactive; EC50 [8]: 6.31 nM; Intrinsic activity [14]: 99%; EC50 [3]: 1 nM; Intrinsic activity [4]: 115%; inhibition at 3 µM (hERG (KCNH2)): 33%; EC50 [19]: 15.8 nM; Intrinsic activity [21]: 71%

Question: Which Ratio Ki (Homo sapiens) does the source give for `CC(C)N(C)CCCCCCN1[C@@H]2CC[C@H]1C[C@@H](NC(=O)c1nn(C(C)C)c3ccccc13)C2` here?
Answer: 23

Question: What about the EC50 [3] of the same compound?
Answer: 5.01 nM

Question: And the Intrinsic activity [4]?
Answer: 92%

Question: What about the Ki [5] of the same compound?
Answer: 1 nM

Question: With `CC(C)n1nc(C(=O)N[C@H]2C[C@H]3CC[C@@H](C2)N3CC(O)CN2CCN(S(C)(=O)=O)CC2)c2ccccc21` (some centres undefined) as the compound, how does the Ratio Ki (Homo sapiens) read?
Answer: 7300

Question: What about the Papp [1] of the same compound?
Answer: 19 ×10⁻⁶ cm/s

Question: And the half-life [2]?
Answer: > 1.5 h

Question: What about the EC50 [3] of the same compound?
Answer: 0.794 nM

Question: And the Intrinsic activity [4]?
Answer: 95%

Question: What about the inhibition at 3 µM (hERG (KCNH2)) of the same compound?
Answer: 4%

Question: And the Ki [5]?
Answer: 3.98 nM

Question: Which results are given for `CC(C)n1nc(C(=O)N[C@H]2C[C@H]3CC[C@@H](C2)N3CC(O)CN2CCCCC2)c2ccccc21` (some centres undefined)?
Answer: Ratio Ki (Homo sapiens): 13000; Papp [1]: 30 ×10⁻⁶ cm/s; half-life [2]: > 1.5 h; EC50 [3]: 2 nM; Intrinsic activity [4]: 85%; inhibition at 3 µM (hERG (KCNH2)): 62%; Ki [5]: 2 nM

Question: Which Ratio Ki (Homo sapiens) does the source give for `CC(C)n1nc(C(=O)N[C@H]2C[C@H]3CC[C@@H](C2)N3CCCCCCN2CCN(S(C)(=O)=O)CC2)c2ccccc21` here?
Answer: 3.6

Question: What about the EC50 [3] of the same compound?
Answer: 12.6 nM

Question: And the Intrinsic activity [4]?
Answer: 75%

Question: What about the Ki [5] of the same compound?
Answer: 2.51 nM

Question: What does the source list for `COC[C@@H]1CCCN1CCCCCCN1[C@@H]2CC[C@H]1C[C@@H](NC(=O)c1nn(C(C)C)c3ccccc13)C2`?
Answer: Ratio Ki (Homo sapiens): 14; EC50 [3]: 0.794 nM; Intrinsic activity [4]: 117%; Ki [5]: 0.794 nM
